Here are results for one compound from patent US6017958A, “Method of treating malignant tumors with thyroxine analogues having no significant hormonal activity” (Octamer, Inc., priority 1997, dated 2000).

Structures are written as SMILES.

The test system of one assay is protein phosphatase 2A. Kind of assay: Activation of purified protein phosphatase 2A (32P-histone H1 dephosphorylation). The assay is classed as biochemical. The settings on record: 50 μM, 10 min preincubation. Here is the method:
2.1 Preparation of ^32 P-labeled Histone H1 Substrate
Histone H1 was phosphorylated with protein kinase C (Upstate Biotechnology,Inc., Lake Placid, N.Y.) in a volume of 100 μL according to standard protocols. Alternatively, histone H1 was phosphorylated with p34cdc2 kinase purified from rapidly multiplying Mytilus Edulis embryos at 4-8 stage after isolation with the p^13 -Suc agarose technique (Smythe and Newport, 1992, "Coupling of Mitosis to the Completion of S Phase in Xenopus Occurs via Modulation of the Tyrosine Kinase that Phosphorylates p34cdc2," Cell 68:787-797).
125 ng purified protein phosphatase 2A (Upstate Biotechnology, Inc., Lake Placid, N.Y.; Usui et al., 1983, J. Biol. Chem. 258:10455-10463) was preincubated with thyroxine analogue (50 μM) in buffer (20 mM MOPS or Tris, pH 7.5, 1 mM MgCl2, 60 μM β-mercaptoethanol) for 10 min. at 23° C. Total reaction volume was 20 μL. ^32 P-labeled histone H1 substrate (10 μg, 10^5 cpm) was added and the dephosphorylation reaction allowed to proceed for 5 min. at 23° C., after which time the reaction was quenched by addition of 2 μL Laeimli buffer. An identical reaction containing 125 ng untreated protein phosphatase 2A was run as a control.
Phosphorylated and dephosphorylated histone H1 were separated by gel electrophoresis (12% SDS-PAGE), bands containing phosphorylated histone H1 excised and assayed for ^32 P activity via scintillation counter.
The velocity of dephosphorylation in 5 min. is an indication of the initial velocity (Vinit) of the dephosphorylation reaction.

Assay [1] relates to protein phosphatase 2A (DU-145). Kind of assay: Phosphatase activity, DU-145. The assay is classed as cell-based, human. How it is done:
Compounds 1-13 were tested for protein phosphatase 2A activation in malignant tumor cell cultures in vitro according to the protocol described in Bauer et al., 1996, "Modification of Growth Related Enzymatic Pathways and Apparent Loss of Tumorigenicity of a Ras-Transformed Bovine Endothelial Cell Line by Treatment with 5-Iodo-6-Amino-1,2-Benzopyrone (INH2 BP)," International J. of Oncology 8:239-252. All other compounds were ineffective.

Assay [2] deals with seven human cancer cell lines. Briefly: Cytocidal action on human cancer cell lines. The assay is classed as cell-based. How it is done:
(§1) Seven human cancer cell lines were obtained from the American Tissue Culture Collection (Rockville, Md.) and maintained in the recommended growth media. Cells were seeded into wells (2 cm^2) at a density of 2×10^4 cells/cm^2. Various concentrations of Compounds 1-13 were added to the media at the time of seeding.
(§2) The cultures were incubated for 72 hours at 37° C. (5% CO2 atmosphere). Following incubation, cells were detached with trypsin and counted in a hemocytometer.

Assay [3] deals with HL-60 (promyelocytic leukemia). Kind of assay: Cytocidal action/growth inhibition, HL-60. The assay is classed as cell-based. Conditions: Homo sapiens, 72 h. Here is the method: as §1, §2
I100 designates the concentration at which no viable cells remained; I50 the concentration at which 50% viable cells remained, as compared to a control.
E-ras 20 cells were cultured as reported, Bauer et al., 1996, "Modification of growth related enzymatic pathways and apparent loss of tumorigenicity of a ras-transformed bovine endothelial cell line by treatment with 5-iodo-6-amino-1,2-benzopyrone (INH2 BP)" Intl. J. Oncol. 8:239-252; HT-144 (melanoma), DU-145 (prostatic cancer), HeLa (cervical cancer), HL 60 (promyelocytic leukemia), MDA-MB-231 (mammary cancer), SK-Br-3 (mammary cancer), T47D (ductal mammary cancer), A559 (lung cancer) were obtained from American Type Culture Collection (Rockville, Md.) and cultured in prescribed media. […]

The test system of assay [4] is E-ras transformed bovine endothelial cells. Briefly: Morphology of E-ras cells. The assay is classed as cell-based. How it is done: E-ras transformed bovine endothelial cells (Bauer et al., 1996, Intl. J. Oncology 8:239-252) were exposed to 10 μM DIME for […]. The DIME-treated cells (10^5 or 10^6 cells/100 μL) were injected subcutaneously into nude mice and tumor progression followed for 25 days.
Microscopic morphology of E-ras cells was examined by techniques reported earlier, Mendeleyev et al., 1997, "Structural Specificity and Tumoricidal Action of Methyl-3,5-Diiodo-4-(4'- Methoxyphenoxy) Benzoate (DIME)," Intl. J. Oncol.,in press; Bauer et al., 1996, "Modification of Growth Related Enzymatic Pathways and Apparent Loss of Tumorigenicity of a ras-Transformed Bovine Endothelial Cell Line" by Treatment With 5-iodo-6-amino-1,2-benzopyrone (INH BP).

A further assay concerns E-ras 20 cells. Kind of assay: cells. The assay is classed as in vitro ADME, bovine. Conditions: Bos taurus, 24 hours, read-out: Extracellular DIME (concentration that causes 100% growth inhibition). Here is the method: Monolayer cultures in 9.6 cm^2 wells (3 ml medium) were exposed to [^14 C]-DIME (10.55 mCi/mmol) for 24 hours, then washed 7 times with 1 ml medium containing unlabeled DIME. The cells were dissolved in 1 ml of 4% Na2 CO3 and 0.2 M NaOH and radioactivity measured by scintillation counting. Cell volume was determined by hematocrit and cell counting from parallel wells treated with unlabeled DIME.
A striking property of DIME is its apparent selectivity for tumors in vivo. We performed drug metabolism and cellular DIME uptake tests to further characterize this property. Incubation of cells in culture with [^14 DIME, under conditions described previously, Bauer et al., 1996, "Modification of growth related enzymatic pathways and apparent loss of tumorigenicity of a ras-transformed bovine endothelial cell line by treatment with 5-iodo-6-amino-1,2-benzopyrone (INH2 BP)" Intl. J. Oncol. […] As shown in Table 9 the tumorigenic transformed cells in general took up DIME more rapidly than nontransformed cells (CV-1) or cells that were less sensitive to killing-by DIME (e.g. E-ras 20). […] On the other hand homogenates of organs of normal mice actively metabolize (de-esterify) DIME as illustrated in Table 10.

A further assay deals with MDA-MB-231 xenografts. The settings on record: cited from earlier work.

As for `COC(=O)c1cc(I)c(Oc2ccc(OC)cc2)c(I)c1` [Compound 1, Methyl 3,5-diiodo-4-(4'-methoxyphenoxy)benzoate], the “Activity/5 min (initial velocity of histone H1 dephosphorylation)” value in the assay with protein phosphatase 2A (control 10217 ± 1708, average of three samples) is recorded as 24655 ± 8600 cpm. Also, in the assay with protein phosphatase 2A, the “increase of Vinit of histone H1 dephosphorylation” value is recorded as “more than doubles Vinit”. Further, the “Phosphatase Activity” value in assay [1] (50 μM DIME, untreated 12.1 ± 3) is recorded as 19.1 ± 2.5 fmol Pi/mg protein × min. In assay [1] (50 μM, DU-145 cells), the “activation of protein phosphatase 2A, fold” value was “at least two-fold”. For the same compound, the “cytocidal action” value in assay [2] (72 hours) is recorded as “maximally active”. Moreover, the “activity in cellular assays and in vivo” value in assay [2] (cellular assays and in vivo) is “highly active”. For the same compound, the IC50 in assay [3] (Table 4, read-out: I50) was 600 nM. Also, the IC100 in assay [3] (Table 4, read-out: I100 (no viable cells remained)) amounted to 3 µM; with E-ras 20 cells, 10 µM. Further, the cell morphology result in assay [4] (4 μM, 18-24 hrs, E-ras 20 cells) is listed as “tumor cells enlarged and, as especially visible at 300-fold magnification, numerous micronuclei appeared”. The micronucleation entry in assay [4] (10 μM, 3 days) is on record as “induced extensive micronucleation”. Besides, the “dose-response of antitumor effect” value in the assay with MDA-MB-231 xenografts (0.25 g/kg and 1.0 g/kg) was “had the same antitumor effect”. Moreover, the tumor regression with MDA-MB-231 xenografts (25-35 days, 0.25 to 1.0 g/kg daily per os, nude mice (Kun et al., 1996)) is 70-85%.
